Key:
[1] = molecular target: Mitogen-activated protein kinase 3 (Homo sapiens, UniProt P27361); test: DRUGMATRIX: Protein Serine/Threonine Kinase, ERK1 enzyme inhibition (substrate: Myelin Basic Protein); parameters: species or system Escherichia coli; settings: Not Active = under 50% inhibition at 10 µM
Cytochrome P450 2D6 = Cytochrome P450 2D6 (Homo sapiens, UniProt P10635); settings: bti-tn-5b1-4; further: in other assays of this panel Not Active means under 50% inhibition at 10 µM
[2] = molecular target: T1, Muscarinic acetylcholine receptor M2 (Homo sapiens, UniProt P08172); format: cell membranes, CHO-K1, Membrane; further: in other assays of this panel Not Active means under 50% inhibition at 10 µM
T1 sequence (P08172 whole entry): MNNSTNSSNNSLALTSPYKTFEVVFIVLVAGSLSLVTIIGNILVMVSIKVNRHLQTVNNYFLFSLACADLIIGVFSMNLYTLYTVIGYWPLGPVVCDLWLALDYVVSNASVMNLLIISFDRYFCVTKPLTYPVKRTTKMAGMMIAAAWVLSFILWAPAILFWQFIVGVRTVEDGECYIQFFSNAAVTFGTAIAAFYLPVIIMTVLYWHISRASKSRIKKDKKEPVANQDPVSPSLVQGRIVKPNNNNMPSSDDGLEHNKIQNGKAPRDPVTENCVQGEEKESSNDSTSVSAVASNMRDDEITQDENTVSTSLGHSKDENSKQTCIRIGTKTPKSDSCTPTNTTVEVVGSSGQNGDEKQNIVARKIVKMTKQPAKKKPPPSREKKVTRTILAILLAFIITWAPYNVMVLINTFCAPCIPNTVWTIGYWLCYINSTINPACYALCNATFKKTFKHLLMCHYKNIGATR

[3] = molecular target: Beta-3 adrenergic receptor (Homo sapiens, UniProt P13945); test: DRUGMATRIX: Adrenergic beta3 radioligand binding (ligand: [125I] Cyanopindolol); format: cell membranes, HEK293, Membrane; settings: Not Active = under 50% inhibition at 10 µM
[4] = molecular target: 5-hydroxytryptamine receptor 4 (Cavia porcellus, UniProt O70528); format: cell membranes, Dunkin-Hartley, Striatum, Membrane; further: in other assays of this panel Not Active means under 50% inhibition at 10 µM
[5] = DRUGMATRIX: Atrial Natriuretic Factor (ANF) radioligand binding (ligand: [125I] ANF (rat)); format: cell membranes, Cavia porcellus, Dunkin-Hartley, Adrenal gland, Membrane; settings: Not Active = under 50% inhibition at 10 µM

Cytochrome P450 2D6, sequence (P10635 whole entry): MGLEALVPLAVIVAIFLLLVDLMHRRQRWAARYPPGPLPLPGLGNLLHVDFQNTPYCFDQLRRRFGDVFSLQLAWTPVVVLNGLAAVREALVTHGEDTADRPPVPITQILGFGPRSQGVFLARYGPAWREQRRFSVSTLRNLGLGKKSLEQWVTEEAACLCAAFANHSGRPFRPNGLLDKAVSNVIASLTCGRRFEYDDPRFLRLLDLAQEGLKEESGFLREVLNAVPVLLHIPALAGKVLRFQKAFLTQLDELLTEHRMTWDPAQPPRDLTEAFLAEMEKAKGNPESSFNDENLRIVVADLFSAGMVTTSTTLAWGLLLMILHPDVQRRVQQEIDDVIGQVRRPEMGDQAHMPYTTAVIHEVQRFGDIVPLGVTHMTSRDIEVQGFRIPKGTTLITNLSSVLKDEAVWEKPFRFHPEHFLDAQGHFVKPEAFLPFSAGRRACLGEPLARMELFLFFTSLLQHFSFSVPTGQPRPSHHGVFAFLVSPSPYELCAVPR
5-hydroxytryptamine receptor 4, sequence (O70528 whole entry): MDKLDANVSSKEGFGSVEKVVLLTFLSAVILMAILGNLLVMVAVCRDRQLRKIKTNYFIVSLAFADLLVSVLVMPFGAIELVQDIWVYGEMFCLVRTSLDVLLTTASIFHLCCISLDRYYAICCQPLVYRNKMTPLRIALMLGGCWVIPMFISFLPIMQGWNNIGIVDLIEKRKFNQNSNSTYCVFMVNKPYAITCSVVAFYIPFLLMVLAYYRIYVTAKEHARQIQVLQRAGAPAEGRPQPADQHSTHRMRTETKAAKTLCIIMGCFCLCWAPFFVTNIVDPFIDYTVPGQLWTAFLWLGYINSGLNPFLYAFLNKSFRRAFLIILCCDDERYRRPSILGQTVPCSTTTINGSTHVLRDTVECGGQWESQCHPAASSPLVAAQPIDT
Mitogen-activated protein kinase 3, sequence (P27361 whole entry): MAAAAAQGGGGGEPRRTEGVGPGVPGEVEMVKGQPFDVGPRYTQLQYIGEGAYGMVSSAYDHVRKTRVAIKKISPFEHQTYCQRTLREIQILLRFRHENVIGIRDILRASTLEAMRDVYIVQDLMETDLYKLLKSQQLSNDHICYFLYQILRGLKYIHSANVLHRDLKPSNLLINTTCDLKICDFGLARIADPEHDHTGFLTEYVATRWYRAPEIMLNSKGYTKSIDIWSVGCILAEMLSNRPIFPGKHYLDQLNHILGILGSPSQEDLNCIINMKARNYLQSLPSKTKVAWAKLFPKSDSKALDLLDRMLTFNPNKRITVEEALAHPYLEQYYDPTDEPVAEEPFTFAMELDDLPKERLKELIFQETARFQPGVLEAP
Beta-3 adrenergic receptor, sequence (P13945 whole entry): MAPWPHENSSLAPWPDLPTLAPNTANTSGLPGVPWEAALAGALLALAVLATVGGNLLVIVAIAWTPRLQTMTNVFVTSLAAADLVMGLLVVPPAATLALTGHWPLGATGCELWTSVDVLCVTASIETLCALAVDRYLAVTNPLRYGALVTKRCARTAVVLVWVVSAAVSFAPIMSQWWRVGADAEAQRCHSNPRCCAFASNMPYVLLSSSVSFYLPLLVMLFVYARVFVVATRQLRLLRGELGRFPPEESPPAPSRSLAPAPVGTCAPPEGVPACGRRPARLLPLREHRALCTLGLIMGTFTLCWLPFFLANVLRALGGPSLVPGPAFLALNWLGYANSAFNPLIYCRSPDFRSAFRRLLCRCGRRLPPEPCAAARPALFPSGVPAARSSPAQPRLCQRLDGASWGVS

| Compound | IC50 [1] | Ki [1] | IC50 (Cytochrome P450 2D6) | Ki (Cytochrome P450 2D6) | IC50 ([2]; cho-k1) | Ki ([2]; cho-k1) | IC50 ([3]; hek293) | Ki ([3]; hek293) | IC50 [4] | Ki [4] | IC50 [5] | Ki [5] | IC50 ([2]; read-out: IC50) [nM] | Ki ([2]; read-out: Ki) [nM] | IC50 ([3]; read-out: IC50) [µM] | Ki ([3]; read-out: Ki) [µM] |
| --- | --- | --- | --- | --- | --- | --- | --- | --- | --- | --- | --- | --- | --- | --- | --- | --- |
| COPPER(II) OXIDE | Not Active | Not Active | Not Active | Not Active | Not Active | Not Active | Not Active | Not Active | Not Active | Not Active | Not Active | Not Active | – | – | – | – |
| CC(CN1c2ccccc2Sc2ccccc21)N(C)C (centres undefined) [PROMETHAZINE] | Not Active | – | Not Active | Not Active | – | – | Not Active | – | Not Active | – | Not Active | Not Active | 35 | 12 | – | – |
| NC(N)=Nc1nc(CSCCC(N)=NS(N)(=O)=O)cs1 [FAMOTIDINE] | Not Active | – | Not Active | Not Active | Not Active | – | Not Active | – | Not Active | – | Not Active | Not Active | – | – | – | – |
| CC(C)(c1ccc(O)cc1)c1ccc(O)cc1 [BISPHENOL A] | Not Active | – | Not Active | Not Active | Not Active | – | Not Active | – | Not Active | – | Not Active | Not Active | – | – | – | – |
| c1ccc2sc(SSc3nc4ccccc4s3)nc2c1 [BENZOTHIAZYL DISULFIDE] | Not Active | – | Not Active | Not Active | Not Active | – | Not Active | – | Not Active | – | Not Active | Not Active | – | – | – | – |
| CC(=O)Nc1ccc2c(c1)Cc1ccccc1-2 [2-ACETYLAMINOFLUORENE] | Not Active | – | Not Active | Not Active | Not Active | – | Not Active | – | Not Active | – | Not Active | Not Active | – | – | – | – |
| Nc1ccc(Cc2ccc(N)cc2)cc1 | Not Active | – | Not Active | Not Active | Not Active | – | Not Active | – | Not Active | – | Not Active | Not Active | – | – | – | – |
| CCO [ALCOHOL] | Not Active | – | Not Active | Not Active | Not Active | – | Not Active | – | Not Active | – | Not Active | Not Active | – | – | – | – |
| CC[C@H]1OC(=O)[C@H](C)[C@@H](O[C@H]2C[C@@](C)(OC)[C@@H](O)[C@H](C)O2)[C@H](C)[C@@H](O[C@@H]2O[C@H](C)C[C@H](N(C)C)[C@H]2O)[C@](C)(O)C[C@@H](C)C(=O)[C@H](C)[C@@H](O)[C@]1(C)O [ERYTHROMYCIN] | Not Active | – | Not Active | Not Active | Not Active | – | Not Active | – | Not Active | – | Not Active | Not Active | – | – | – | – |
| Nc1nc(N)c2nc(CNc3ccc(C(=O)N[C@@H](CCC(=O)O)C(=O)O)cc3)cnc2n1 [AMINOPTERIN] | Not Active | – | Not Active | Not Active | Not Active | – | Not Active | – | Not Active | – | Not Active | Not Active | – | – | – | – |
| CC(C)Cn1cnc2c(N)nc3ccccc3c21 [IMIQUIMOD] | Not Active | – | Not Active | Not Active | – | Not Active | Not Active | – | Not Active | – | Not Active | Not Active | – | – | – | – |
| C[N+](C)(C)CCOP(=O)([O-])OC[C@H](O)CO | Not Active | – | Not Active | Not Active | Not Active | – | Not Active | – | Not Active | – | Not Active | Not Active | – | – | – | – |
| OC[C@H]1O[C@@H]2O[C@H]3[C@H](O)[C@@H](O)[C@@H](O[C@H]4[C@H](O)[C@@H](O)[C@@H](O[C@H]5[C@H](O)[C@@H](O)[C@@H](O[C@H]6[C@H](O)[C@@H](O)[C@@H](O[C@H]7[C@H](O)[C@@H](O)[C@@H](O[C@H]8[C@H](O)[C@@H](O)[C@@H](O[C@H]1[C@H](O)[C@H]2O)O[C@@H]8CO)O[C@@H]7CO)O[C@@H]6CO)O[C@@H]5CO)O[C@@H]4CO)O[C@@H]3CO [BETADEX] | Not Active | – | Not Active | Not Active | Not Active | – | Not Active | – | Not Active | – | Not Active | Not Active | – | – | – | – |
| CARBOXYMETHYLCELLULOSE | Not Active | Not Active | Not Active | Not Active | Not Active | Not Active | Not Active | Not Active | Not Active | Not Active | Not Active | Not Active | – | – | – | – |
| O=C(O)COC(=O)Cc1ccccc1Nc1c(Cl)cccc1Cl [ACECLOFENAC] | Not Active | – | Not Active | Not Active | Not Active | – | Not Active | – | Not Active | – | Not Active | Not Active | – | – | – | – |
| COc1ccc(C[C@H](N)C(=O)N[C@H]2[C@@H](O)[C@H](n3cnc4c(N(C)C)ncnc43)O[C@@H]2CO)cc1 [PUROMYCIN] | Not Active | – | Not Active | Not Active | Not Active | – | Not Active | – | Not Active | – | Not Active | Not Active | – | – | – | – |
| O=C(O)c1ccccc1 [BENZOIC ACID] | Not Active | – | Not Active | Not Active | Not Active | – | Not Active | – | Not Active | – | Not Active | Not Active | – | – | – | – |
| Oc1ccccc1 [PHENOL] | Not Active | – | Not Active | Not Active | Not Active | – | Not Active | – | Not Active | – | Not Active | Not Active | – | – | – | – |
| C[C@H](C(=O)O)c1ccc2oc(-c3ccc(F)cc3)nc2c1 [FLUNOXAPROFEN] | Not Active | – | Not Active | Not Active | Not Active | – | Not Active | – | Not Active | – | Not Active | Not Active | – | – | – | – |
| COc1cc(NC(C)CCCN)c2ncccc2c1 (centres undefined) [PRIMAQUINE] | Not Active | – | Not Active | Not Active | Not Active | – | Not Active | – | Not Active | – | Not Active | Not Active | – | – | – | – |
| COc1cc(/C=C/C(=O)O)ccc1O [FERULATE] | Not Active | – | Not Active | Not Active | Not Active | – | Not Active | – | Not Active | – | Not Active | Not Active | – | – | – | – |
| CNC[C@H](O)c1ccc(O)c(O)c1 [EPINEPHRINE] | Not Active | – | Not Active | Not Active | Not Active | – | Not Active | – | Not Active | – | Not Active | Not Active | – | – | – | – |
| CCN1CCN(C(=O)N[C@@H](C(=O)N[C@@H]2C(=O)N3[C@@H]2SC(C)(C)[C@@H]3C(=O)O)c2ccccc2)C(=O)C1=O [PIPERACILLIN] | Not Active | – | Not Active | Not Active | Not Active | – | Not Active | – | Not Active | – | Not Active | Not Active | – | – | – | – |
| C=CCN1CC[C@]23c4c5ccc(O)c4O[C@H]2/C(=N/N=C2\CC[C@@]4(O)[C@H]6Cc7ccc(O)c8c7[C@@]4(CCN6CC=C)[C@H]2O8)CC[C@@]3(O)[C@H]1C5 [NALOXONAZINE] | Not Active | – | Not Active | Not Active | Not Active | – | Not Active | – | Not Active | – | Not Active | Not Active | – | – | – | – |
| c1ccc2c(c1)Nc1ccccc1S2 [PHENOTHIAZINE] | Not Active | – | Not Active | Not Active | Not Active | – | Not Active | – | Not Active | – | Not Active | Not Active | – | – | – | – |
| Cl.NC[C@H]1CC[C@H](C(=O)Oc2ccc(CCC(=O)O)cc2)CC1 [CETRAXATE HYDROCHLORIDE] | Not Active | – | Not Active | Not Active | Not Active | – | Not Active | – | Not Active | – | Not Active | Not Active | – | – | – | – |
| CN(CCOc1ccc(C[C@H](Nc2ccccc2C(=O)c2ccccc2)C(=O)O)cc1)c1ccccn1 | Not Active | – | Not Active | Not Active | Not Active | – | – | – | Not Active | – | Not Active | Not Active | – | – | 22.1 | 16.6 |
| Nc1nc(F)nc2c1ncn2[C@@H]1O[C@H](CO)[C@@H](O)[C@@H]1O [FLUDARABINE] | Not Active | – | Not Active | Not Active | Not Active | – | Not Active | – | Not Active | – | Not Active | Not Active | – | – | – | – |
